Measurements as given in patent publication US11434205B2, “Substituted imidazole carboxylate derivatives and the use thereof” (priority 2018, dated 2022).
Like-named read-outs stand apart in the source and are kept apart here.

What was measured:
rats [1] = type: in vivo, rat; conditions: rats of the MAP/HR figures, 2×ED50, tail vein
rats [2] = test system: rats
Method: Adult male Sprague-Dawley rats (250-300 g) were selected for the experiment. […] The anesthesia effects of the compounds were assessed in rats using a LORR assay and a period >30 s was considered as an indicator of general anesthesia. Then the up and down method was used to determine 50% effective dose (ED50). The drugs were administered through the tail vein of rats in a volume of 0.6 mL and at a rate of 0.1 mL/s.

rats [3] = type: in vivo, rat; conditions: rats of the MAP/HR figures, 2×ED50, tail vein; same value in min
Outline: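 Hemodynamic stability judged from mean arterial pressure and heart rate, recorded at 15 s intervals over 30 min pre- and post-dose. Dosing was through a tail-vein indwelling catheter in rats carrying implanted aortic/ventricular catheters and ECG wires, operated ≥1 week earlier.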

rats [4] = assay: Loss of righting reflexes (LORR) assay in rats, ED50 by up and down method; type: in vivo, rat; conditions: Rattus norvegicus, tail vein, class symbols
Outline: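 ED50 obtained by up-and-down dosing, with righting-reflex loss over 30 s counted as general anesthesia. Compounds injected into the tail vein (0.1 mL/s) of male Sprague-Dawley rats weighing 250-300 g.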

rats [5] = assay: Pharmacological characteristics at equivalent doses (2×ED50) in rats; conditions: 2×ED50, tail vein; for Adverse reactions: Red urine (incidence): DMSO solution (DMSO alone 10/10); for Adverse reactions: Tremor (incidence): animals affected/animals; for Onset time: time of LORR
Outline: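 Anesthesia onset, recorded as time of LORR, was measured after a 2×ED50 tail-vein injection (0.6 mL, 0.1 mL/s). Animals were male Sprague-Dawley rats of 250-300 g, n=8.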

[6] = test system: secretion of corticosterone, H295R cell line; assay: cells; type: cell-based; conditions: for EC50: Homo sapiens, NCI-H295R, read-out: EC50 (Corticosterone)
Method: (§1) The Effects of the Compounds on Adrenocortical Function In Vitro Test
(§2) Then secretion of the cortisol and corticosterone in the supernatant, was measured using HPLC-MS/MS method to determine whether the compounds of the present invention had adrenotoxic potential.

[7] = test system: secretion of cortisol, H295R cell line; assay: cells; type: cell-based; conditions: for EC50: Homo sapiens, NCI-H295R, read-out: EC50 (Cortisol)
Method: as §1, §2

rats [8] = test system: rats; remark: listed apart in the source
Method: Pharmacological Effects of the Compounds on Continuous Infusion in Rats
Adult male Sprague-Dawley rats with body weight ranging from 250 to 300 gm were selected for continuous infusion test. […] Time to recovery of righting reflex from stopping infusion, and time to fully awake from stopping infusion were recorded.

[9] = continuous tail vein infusion at 2×MIR, LORR maintained 1 hour, Table C4
[10] = H295R cell line, 0.1-10000 nM, HPLC-MS/MS, Table E3
[11] = continuous tail vein infusion at 2×MIR, LORR maintained 1 hour, Table E4
[12] = emulsion, continuous infusion at 2×MIR
[13] = H295R cell line, 0.1-10000 nM, HPLC-MS/MS, Table D3
[14] = continuous tail vein infusion at 2×MIR, LORR maintained 1 hour, Table D4

Structure (SMILES) | recovery time of the test animals' righting reflex (rats [1]) [s] | Approximate therapeutic index (rats [2]) | Minimal lethal dose (rats [2]) [mg/kg] | recovery time of the test animals' righting reflex (rats [3]) [min] | ED50 (rats [4]) [mg/kg] | Righting reflex duration (rats [5]) [min] | Adverse reactions: Red urine (incidence) (rats [5]) | Adverse reactions: Tremor (incidence) (rats [5]) | Onset time (rats [5]) [min] | EC50 [6] [µM] | EC50 [7] [µM] | further results
CCCCC(CCCC)OC(=O)c1cncn1[C@H](C)c1ccccc1 [Compound C25] | 125 | >10 | >4 | 2.08 | 0.1 to 0.5 | 2.03 ± 1.32 | (8/8) | Tremor (6/8), Red urine | 0.72 ± 0.20 | > 1 | > 1 | Corticosterone as an indicator to determine the presence of inhibition ([6]; H295R, Table C3): 0; Cortisol as an indicator to determine the presence of inhibition ([7]; H295R, Table C3): 0; Onset time (rats [8]; [9]): 3 to 4 min; Recovery time after stopping infusion (rats [8]; [9]): 12 to 15 min
CC(=O)C1(OC(=O)c2cncn2[C@H](C)c2ccccc2)COC1 [Compound C3] | 75 | >14 | >10 | 1.25 | 0.5 to 1 | 1.31 ± 0.95 | urine (8/8) |  | 0.36 ± 0.12 | > 1 | > 1 | Adverse reactions: Restlessness (incidence) (rats [5]): Restlessness (3/8), Red; Corticosterone as an indicator to determine the presence of inhibition ([6]; H295R, Table C3): 0; Cortisol as an indicator to determine the presence of inhibition ([7]; H295R, Table C3): 0; Onset time (rats [8]; [9]): 3 to 4 min; Recovery time after stopping infusion (rats [8]; [9]): 10 to 14 min; Types and incidence of adverse reactions (rats [8]; [9]): Restlessness (2/6), Tremor (3/6)
CC(=O)C(C)(C)OC(=O)c1c(F)ncn1[C@H](C)c1ccccc1 [Compound E6] | 174 | >24 | >10 | 2.90 | 0.5 to 1 | 2.73 ± 1.08 | urine (8/8) | (1/8), Red | 0.13 ± 0.04 | > 10 | > 10 | Corticosterone as an indicator to determine the presence of inhibition [6, 10]: 0; Cortisol as an indicator to determine the presence of inhibition [7, 10]: 0; Onset time (rats [8]; [11]): 2 to 3 min; Recovery time after stopping infusion (rats [8]; [11]): 9 to 11 min; Types and incidence of adverse reactions (rats [8]; [11]): Tremor (4/6)
CCC1(COC(=O)c2cncn2[C@H](C)c2ccccc2)COC1 [Compound B9] | 109 | >12 | >18 | 1.82 | 0.5 to 1 | 1.98 ± 1.21 | 8/8 |  | 0.39 ± 0.1 | > 10 | > 10 | Adverse reactions: Restlessness (incidence) (rats [5]): 1/8; Corticosterone as an indicator to determine the presence of inhibition ([6]; H295R, Table B3): 0; Cortisol as an indicator to determine the presence of inhibition ([7]; H295R, Table B3): 0; Recovery time after stopping infusion (rats [8]; after 1 hour infusion at 2×MIR): 10 to 13 min; Adverse reactions: Restlessness (incidence) (rats [8]; continuous infusion 2×MIR): 2/6; Adverse reactions: Tremor (incidence) (rats [8]; continuous infusion 2×MIR): 1/6; Onset time (rats [8]; [12]): 2 to 3 min
C/C=C/C1(OC(=O)c2cncn2[C@H](C)c2ccccc2)COC1 [Compound D42] | 323 | >12 | >9 | 5.38 | 0.5 to 1 | 2.50 ± 1.18 | Red urine (8/8) |  | 0.13 ± 0.02 | > 1 | > 1 | Corticosterone as an indicator to determine the presence of inhibition [6, 13]: 0; Cortisol as an indicator to determine the presence of inhibition [7, 13]: 0; Onset time (rats [8]; [14]): 3 to 4 min; Recovery time after stopping infusion (rats [8]; [14]): 12 to 16 min; Types and incidence of adverse reactions (rats [8]; [14]): Tremor (6/6)
C=CC#CC(C)(C)OC(=O)c1cncn1[C@H](C)c1ccccc1 [Compound D37] | 165 | >13 | >10 | 2.75 | 0.5 to 1 | 3.09 ± 2.03 | Red urine (8/8) |  | 0.24 ± 0.11 | > 1 | > 1 | Corticosterone as an indicator to determine the presence of inhibition [6, 13]: 0; Cortisol as an indicator to determine the presence of inhibition [7, 13]: 0; Onset time (rats [8]; [14]): 2 to 3 min; Recovery time after stopping infusion (rats [8]; [14]): 12 to 18 min; Types and incidence of adverse reactions (rats [8]; [14]): Tremor (4/6)
CCC#CC(C)OC(=O)c1cncn1[C@H](C)c1ccccc1 (stereo partly shown) [Compound D36] | 143 | >15 | >4 | 2.38 | 0.1 to 0.5 | 2.63 ± 1.78 | Red urine (8/8) |  | 0.31 ± 0.14 | > 1 | > 1 | Adverse reactions: Hindlimb rigidity (incidence) (rats [5]): Hindlimb rigidity (2/8),; Adverse reactions: Tongue stretching (incidence) (rats [5]): Tongue stretching (4/8),; Corticosterone as an indicator to determine the presence of inhibition [6, 13]: 0; Cortisol as an indicator to determine the presence of inhibition [7, 13]: 0; Onset time (rats [8]; [14]): 3 to 4 min; Recovery time after stopping infusion (rats [8]; [14]): 12 to 17 min
COCC1(COC(=O)c2cncn2[C@H](C)c2ccccc2)CCC1 [Compound A11] | 225 | >12 | >1 | 3.75 | 0.01 to 0.1 | 3.81 ± 1.49 | Red urine (8/8) |  | 0.21 ± 0.10 | > 10 | > 10 | Corticosterone as an indicator to determine the presence of inhibition ([6]; H295R, Table A3): 0; Cortisol as an indicator to determine the presence of inhibition ([7]; H295R, Table A3): 0; Recovery time after stopping infusion (rats [8]; after 1 hour infusion at 2×MIR): 14 to 18 min; Adverse reactions: Tremor (incidence) (rats [8]; continuous infusion 2×MIR): Tremor (5/6); Onset time (rats [8]; [12]): 3 to 4 min
CCCC(CCC)OC(=O)c1cncn1[C@H](C)c1ccccc1 [Compound C20] | 243 | >16 | >7 | 4.05 | 0.1 to 0.5 | 3.59 ± 2.63 | (8/8) | Tremor (2/8), Red urine | 0.43 ± 0.07 | > 10 | > 10 | Corticosterone as an indicator to determine the presence of inhibition ([6]; H295R, Table C3): 0; Cortisol as an indicator to determine the presence of inhibition ([7]; H295R, Table C3): 0; Onset time (rats [8]; [9]): 3 to 4 min; Recovery time after stopping infusion (rats [8]; [9]): 8 to 15 min; Types and incidence of adverse reactions (rats [8]; [9]): Tremor (3/6), Myoclonus (1/6)
CC#CCOC(=O)c1c(F)ncn1[C@H](C)c1ccccc1 [Compound E35] | 151 | >17 | >4 | 2.52 | 0.1 to 0.5 | 2.30 ± 0.80 | urine (8/8) | (4/8), Red | 0.32 ± 0.11 | > 10 | > 10 | Corticosterone as an indicator to determine the presence of inhibition [6, 10]: 0; Cortisol as an indicator to determine the presence of inhibition [7, 10]: 0; Onset time (rats [8]; [11]): 2 to 3 min; Recovery time after stopping infusion (rats [8]; [11]): 10 to 13 min; Types and incidence of adverse reactions (rats [8]; [11]): Tongue stretching (2/6), Tremor (3/6)
C[C@H](c1ccccc1)n1cncc1C(=O)OCCC1CCC1 [Compound A18] | 273 | >22 | >5 | 4.55 | 0.1 to 0.5 | 4.77 ± 1.73 | Red urine (8/8) |  | 0.20 ± 0.09 | > 1 | > 1 | Corticosterone as an indicator to determine the presence of inhibition ([6]; H295R, Table A3): 0; Cortisol as an indicator to determine the presence of inhibition ([7]; H295R, Table A3): 0; Recovery time after stopping infusion (rats [8]; after 1 hour infusion at 2×MIR): 11 to 15 min; Adverse reactions: Tremor (incidence) (rats [8]; continuous infusion 2×MIR): Tremor (5/6); Onset time (rats [8]; [12]): 3 to 4 min
